Assay results taken from US12194081B2, “ARGINASE1 polypeptides” (IO BIOTECH APS, priority 2018, dated 2025).

Tested on: MC38 colon adenocarcinoma
Assay: Tumour vaccination, MC38 colon adenocarcinoma tumour model
Format: in vivo, mouse
Settings: 100 μg ArgLong2 with Montanide, days 0, 7, 14; p=0.030 Mixed effects analysis; FIG. 7
Method: Animals were vaccinated subcutaneously with 100 μg peptide in DMSO/H2O in a 1:1 emulsion with incomplete Montanide ISA 51 VG. Montanide ISA 51 VG+DMSO/H2O served as a control vaccine. For subsequent analysis of the immune response to the ArgLong2 peptide, mice were sacrificed on day 7 and spleen and draining lymph nodes (dLNs) were harvested for ELISPOT setup.
Each animal was inoculated subcutaneously into the right flank with 0.5×10^6 syngeneic tumour cells in 100 μl media. Both the syngeneic B16 F10 melanoma cells line and the syngeneic MC38 colon adenocarcinoma cell line were used. Vaccinations were initiated on day 0 and repeated once a week (day 7 and day 14). Peptide and control vaccinations were performed as described above.
Tumour growth was monitored and tumours were measured approximately every second day. Tumour volume was calculated at V [mm^3]=L×W^2/2 (where L is the longest diameter and W perpendicular to L). Maximum tumor size before mice were euthanized was 864 mm^3 (L=12 mm, W=12 mm).

## ISAKDIVYIGLRDVDPGEHYILKTLGIKYFSMTEVDRL (Peptide fragment of human Arginase 1 (ArgLong2)) [38-mer, positions 169-206 of full length human Arginase 1]
  tumour growth vs control vaccination, MC38: significantly delay tumour growth
